Measured values published in patent publication US9169252B2 (BRISTOL-MYERS SQUIBB COMPANY, priority 2014, dated 2015).
Where two headings read alike, the source gives them in different places.

Assays:
IRAK4 = IRAK4 (Homo sapiens (Human), UniProt Q9NWZ3); assay: IRAK4 Inhibition Assay; format: biochemical; details: ATP 500 μM, read-out: IRAK4 IC50
Procedure: The assays were performed in U-bottom 384-well plates. […] The reaction was initiated by the combination of IRAK4 with substrates and test compounds. The reaction mixture was incubated at room temperature for 60 min. and terminated by adding 45 μL of 35 mM EDTA to each sample. The reaction mixture was analyzed on the Caliper LABCHIP® 3000 (Caliper, Hopkinton, Mass.) by electrophoretic separation of the fluorescent substrate and phosphorylated product.

[1] = test system: TLR2 induced IL-6 in peripheral blood mononuclear cells (PBMCs); assay: PBMC TLR2 Induced IL-6 Assay; format: cell-based, human; details: IL-6 by ELISA; for EC50: read-out: Cell EC50; for IC50: read-out: Cell IC50
Procedure: PBMC TLR2 Induced IL-6 Assay
Peripheral blood mononuclear cells (PBMCs) were isolated from human blood containing the anti-coagulant EDTA (2.5 mM) by centrifugation over a FICOLL® gradient. PBMCs (250000 cells/well) were cultured in assay media (RPMI with 10% heat inactivated FCS) with compounds for 30 minutes at 37° C. in a 5% CO2 incubator. Following pretreatment with compounds, cells were stimulated for 5 hours with 10 µg/ml lipoteichoic acid (Invivogen, San Diego, Calif.), a TLR2 agonist. At the end of the culture, plates were centrifuged at 1800 rpm for 10 minutes to pellet the cells.

[2] = Homo sapiens, PBMC, PBMC TLR2 Induced IL-6 Assay, lipoteichoic acid stimulation
[3] = Homo sapiens, PBMC, human PBMCs, lipoteichoic acid stimulated
[4] = human PBMCs, lipoteichoic acid stimulated

IRAK4, sequence (Q9NWZ3 whole entry, species assumed): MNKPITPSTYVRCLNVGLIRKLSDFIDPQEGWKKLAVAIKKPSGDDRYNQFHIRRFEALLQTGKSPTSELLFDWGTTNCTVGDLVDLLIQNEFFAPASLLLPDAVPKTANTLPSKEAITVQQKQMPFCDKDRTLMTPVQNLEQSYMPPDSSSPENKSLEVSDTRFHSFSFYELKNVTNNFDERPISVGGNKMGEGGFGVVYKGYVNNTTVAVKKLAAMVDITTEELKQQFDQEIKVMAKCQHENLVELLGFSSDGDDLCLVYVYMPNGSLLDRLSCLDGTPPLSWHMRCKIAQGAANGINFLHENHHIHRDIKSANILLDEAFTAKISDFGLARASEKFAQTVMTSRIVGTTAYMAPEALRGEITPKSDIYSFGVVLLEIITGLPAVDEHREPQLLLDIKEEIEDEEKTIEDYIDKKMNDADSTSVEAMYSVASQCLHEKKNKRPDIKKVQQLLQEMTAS

Structure (SMILES)	IC50 (IRAK4; IRAK4 Inhibition Assay) [µM]	IC50 (IRAK4; IRAK4 0.6 nM) [µM]	IC50 [1, 3] [µM]	also measured
CS[C@H]1CC[C@H](NC(=O)c2cnc(-n3ccc4cc(C#N)cnc43)cc2NC(C)C)CC1 [Example 101, 6-(5-Cyano-1H-pyrrolo[2,3-b]pyridin-1-yl)-4-(isopropylamino)-N-((trans)-4-(methylthio)cyclohexyl)nicotinamide]	0.0078	–	–	EC50 [1, 2]: 0.112 µM
CNC(=O)[C@H]1CC[C@H](NC(=O)c2cnc(-n3ccc4cncnc43)cc2NC2CCOCC2)CC1 [Example 82, N-((trans)-4-(methylcarbamoyl)cyclohexyl)-6-(7H-pyrrolo[2,3-d]pyrimidin-7-yl)-4-((tetrahydro-2H-pyran-4-yl)amino)nicotinamide]	0.0044	–	–	EC50 [1, 2]: 0.166 µM; IC50 [1, 2]: 0.578 µM
CC(C)Nc1cc(-n2ncc3cc(C#N)cnc32)ncc1C(=O)Nc1cnn(C2CN(S(C)(=O)=O)C2)c1 [Example 281]	0.0078	–	–	IC50 [1, 2]: 0.255 µM
CC(C)Nc1cc(-n2ccc3cccnc32)ncc1C(=O)NC[C@@H](F)C(C)(C)O [Example 74, (R)—N-(2-fluoro-3-hydroxy-3-methylbutyl)-4-(isopropylamino)-6-(1H-pyrrolo[2,3-b]pyridin-1-yl)nicotinamide]	0.0043	–	–	IC50 [1, 2]: 0.531 µM
CC(C)Nc1cc(-n2ccc3cnc(N(C)C)nc32)ncc1C(=O)NC[C@@H](F)C(C)(C)O [Example 185, (R)-6-(2-(Dimethylamino)-7H-pyrrolo[2,3-d]pyrimidin-7-yl)-N-(2-fluoro-3-hydroxy-3-methylbutyl)-4-(isopropylamino)nicotinamide]	0.0034	–	–	EC50 [1, 2]: 0.35 µM
CC(C)Nc1cc(-n2ncc3cc(C#N)cnc32)ncc1C(=O)NCc1nc(Cc2ccccc2)no1 [Example 267]	0.0045	–	–	IC50 [1, 2]: 0.516 µM
CC(C)Nc1cc(-n2ncc3cc(C#N)cnc32)ncc1C(=O)NCCC1(O)CCC(F)(F)CC1 [Example 279]	0.0065	–	–	IC50 [1, 2]: 0.247 µM
CC(C)Nc1cc(-n2ccc3cc(C#N)cnc32)ncc1C(=O)N[C@H]1CC[C@@](F)(c2nccn2C)CC1 [Example 182, 6-(5-cyano-1H-pyrrolo[2,3-b]pyridin-1-yl)-N-((trans)-4-fluoro-4-(1-methyl-1H-imidazol-2-yl)cyclohexyl)-4-(isopropylamino)nicotinamide]	0.0018	–	–	EC50 [1, 2]: 0.074 µM
CC(C)Nc1cc(-n2ccc3cc(C#N)cnc32)ncc1C(=O)NCCCOC(C)(C)C [Example 417]	–	0.0055	–	EC50 [1, 3]: 0.171 µM
CC(C)(O)[C@H](F)CNC(=O)c1cnc(-n2ccc3cc(C#N)cnc32)cc1N[C@@H]1COC[C@H]1F (single isomer, unassigned) [Example 458]	–	–	0.26	EC50 [1, 4]: 0.261 µM
CC(C)(O)[C@H](F)CNC(=O)c1cnc(-n2ccc3cc(C#N)cnc32)cc1NC1CCC(O)C1 (single isomer, unassigned) [Example 26]	–	–	–	EC50 ([1]; PBMC TLR2 Induced IL-6 Assay, lipoteichoic acid stimulation): 0.168 µM
CC(C)(O)[C@H](F)CNC(=O)c1cnc(-n2ncc3cc(C#N)cnc32)cc1NC1CCC(F)C1 (stereo partly shown) [Example 626]	–	–	–	IC50 [1, 4]: 0.076 µM
CC(C)Nc1cc(-n2cnc3cncnc32)ncc1C(=O)NC[C@@H](F)C(C)(C)O [Example 170, (R)—N-(2-Fluoro-3-hydroxy-3-methylbutyl)-4-(isopropylamino)-6-(9H-purin-9-yl) nicotinamide]	–	–	–	EC50 [1, 2]: 0.423 µM
CC(C)(O)[C@H](F)CNC(=O)c1cnc(-n2ccc3cc(C(N)=O)cnc32)cc1NCC1CNC1 [Example 475]	–	–	1.18	EC50 [1, 3]: 0.305 µM
CC(C)Nc1cc(-n2ccc3cc(C#N)cnc32)ncc1C(=O)NC1CCC(C(C)(O)C2CC2)CC1 (stereo not shown) [Example 446]	–	–	–	EC50 [1, 4]: 0.051 µM
CC(C)Nc1cc(-n2ccc3cc(C#N)cnc32)ncc1C(=O)N[C@H]1CC[C@H]([N+](=O)[O-])CC1 [Example 95, 6-(5-cyano-1H-pyrrolo[2,3-b]pyridin-1-yl)-4-(isopropylamino)-N-((trans)-4-nitrocyclohexyl)nicotinamide]	–	–	–	EC50 [1, 2]: 0.408 µM
CC(O)CCNc1cc(-n2ncc3cc(C#N)cnc32)ncc1C(=O)NC[C@@H](F)C(C)(C)O (single isomer, unassigned) [Example 572]	–	–	0.303	–
CC(C)Nc1cc(-n2ncc3cc(C#N)cnc32)ncc1C(=O)N[C@H]1CC[C@H](NC(=O)[C@H](C)O)CC1 [Example 274]	–	–	–	IC50 [1, 2]: 0.204 µM
CC(C)(O)[C@H](F)CNC(=O)c1cnc(-n2ncc3cc(F)cnc32)cc1NC1CCC(O)C1 (mixture of isomers) [Example 611]	–	–	–	EC50 [1, 4]: 0.536 µM; IC50 [1, 4]: 1.85 µM
Cn1cc(Nc2cc(-n3ncc4cc(C#N)cnc43)ncc2C(=O)NC[C@@H](F)C(C)(C)O)cn1 [Example 387]	–	–	–	IC50 [1, 2]: 0.198 µM
CC(C)Nc1cc(-n2ccc3cc(CNC(=O)CC(C)(C)O)cnc32)ncc1C(=O)NC[C@@H](F)C(C)(C)O [Example 499]	–	–	0.213	–

Further lines, with some results ahead:

IC50 (IRAK4; IRAK4 Inhibition Assay) [µM]	IC50 (IRAK4; IRAK4 0.6 nM) [µM]	Structure (SMILES)	IC50 [1, 3] [µM]	also measured
0.0071	–	CCOCCNC(=O)c1cnc(-n2ncc3cc(C#N)cnc32)cc1Nc1cnn(CC(F)F)c1 [Example 392]	–	IC50 [1, 2]: 0.016 µM
0.0033	–	CC(C)(O)[C@H](F)CNC(=O)c1cnc(-n2ncc3cc(C#N)cnc32)cc1Nc1cnn(C2CCOCC2)c1 [Example 349]	–	IC50 [1, 2]: 0.18 µM
–	0.0015	CC(C)(O)[C@H](F)CNC(=O)c1cnc(-n2ncc3cc(C#N)c(N)nc32)cc1NC12CC(C1)C2 [Example 637]	0.165	–
–	0.0019	C[C@H](F)CNc1cc(-n2ncc3cc(C#N)c(N)nc32)ncc1C(=O)NC[C@@H](F)C(C)(C)O [Example 590]	0.129	–
–	0.0033	CC(C)(O)[C@H](F)CNC(=O)c1cnc(-n2ncc3cc(C#N)cnc32)cc1Nc1cccc(C#N)c1F [Example 528]	0.326	EC50 [1, 3]: 0.091 µM
–	0.0126	CC(C)(O)[C@H](F)CNC(=O)c1cnc(-n2ncc3cc(Cl)cnc32)cc1NC1COC1 [Example 551]	0.212	–
0.0037	–	CCOC(C)(C)[C@H](F)CNC(=O)c1cnc(-n2ncc3cc(C#N)cnc32)cc1NC(C)C [Example 215]	–	EC50 [1, 2]: 0.144 µM
–	0.004	CC(C)(O)[C@H](F)CNC(=O)c1cnc(-n2ncc3cc(F)cnc32)cc1NC1CCC(F)C1 (single isomer, unassigned) [Example 619]	–	EC50 [1, 4]: 0.119 µM
0.0147	–	CC(C)Nc1cc(-n2ncc3cc(C#N)cnc32)ncc1C(=O)NC[C@@H](F)C(C)(C)OP(=O)(O)O [Example 191, (R)-4-(6-(5-Cyano-1H-pyrazolo[3,4-b]pyridin-1-yl)-4-(isopropylamino)nicotinamido)-3-fluoro-2-methylbutan-2-yl dihydrogen phosphate]	–	EC50 [1, 2]: 10 µM
–	0.0054	CC(C)(O)[C@H](F)CNC(=O)c1cnc(-n2ncc3cc(C#N)cnc32)cc1N[C@@H]1C[C@H]1CO (single isomer, unassigned) [Example 643]	–	IC50 [1, 4]: 0.32 µM
–	0.0196	COC(C)(C)CNc1cc(-n2ncc3cc(C#N)cnc32)ncc1C(=O)NC[C@@H](F)C(C)(C)O [Example 593]	0.408	–
0.0036	–	CC(C)(O)[C@H](F)CNC(=O)c1cnc(-n2ccc3cc(C#N)cnc32)cc1N[C@H]1CC[C@](C)(O)CC1 [Example 62, 6-(5-cyano-1H-pyrrolo[2,3-b]pyridin-1-yl)-N—((R)-2-fluoro-3-hydroxy-3-methylbutyl)-4-(((trans)-4-hydroxy-4-methylcyclohexyl)amino)nicotinamide]	–	EC50 [1, 2]: 0.143 µM
–	0.0013	CC(C)(O)[C@H](F)CNC(=O)c1cnc(-n2ccc3cc(C#N)cnc32)cc1N[C@@H]1CCN(S(C)(=O)=O)C1 [Example 465]	0.023	EC50 [1, 3]: 0.007 µM
–	0.004	CC(C)(O)[C@H](F)CNC(=O)c1cnc(-n2ncc3cc(C#N)cnc32)cc1NC1CCN(c2ccccc2)CC1 [Example 535]	–	EC50 [1, 3]: 0.185 µM
0.001	–	CC(C)(O)[C@H](F)CNC(=O)c1cnc(-n2ccc3cc(C#N)cnc32)cc1NC1CCC(F)C1 (single isomer, unassigned) [Example 109]	–	EC50 [1, 2]: 0.045 µM
–	0.0062	Cc1cc(Nc2cc(-n3ncc4cc(C#N)cnc43)ncc2C(=O)NC[C@@H](F)C(C)(C)O)[nH]n1 [Example 405]	0.561	–
0.0019	–	CC(C)Nc1cc(-n2ncc3cc(C#N)c(N)nc32)ncc1C(=O)NC[C@@H](F)C(C)(C)F [Example 295]	–	IC50 [1, 2]: 0.24 µM
–	0.0118	CC(F)(CO)CNc1cc(-n2ncc3cc(C#N)cnc32)ncc1C(=O)NC[C@@H](F)C(C)(C)O (mixture of isomers) [Example 575]	0.587	–
0.0046	–	C[C@H](CF)Nc1cc(-n2ncc3cc(C#N)cnc32)ncc1C(=O)NC[C@@H](F)C(C)(C)O [Example 114, 6-(5-Cyano-1H-pyrazolo[3,4-b]pyridin-1-yl)-N—((R)-2-fluoro-3-hydroxy-3-methylbutyl)-4-(((R)-1-fluoropropan-2-yl)amino)nicotinamide]	–	–
